In ChEMBL document CHEMBL4651402, “Screening of ~5500 FDA-approved drugs and clinical candidates for anti-SARS-CoV-2 activity” (2021):

Columns and labels:
SARS-CoV-2 [1] = experiment: microbe, parasite or virus in culture; conditions: Severe acute respiratory syndrome coronavirus 2, Vero C1008, 48 h
in vitro = conditions: chlorocebus sabaeus, Vero E6 (Vero C1008) cells
SARS-CoV-2 [2] = experiment: microbe, parasite or virus in culture; assay type: functional, organism-based, Chlorocebus sabaeus, Vero C1008; conditions: Severe acute respiratory syndrome coronavirus 2, Vero C1008, 48 h

With `N#Cc1ccc2c(c1)N(CCCN1CCC(O)CC1)c1ccccc1S2` [PERICIAZINE] the IC50 (SARS-CoV-2 [1]) was > 20 µM, the IC50 (SARS-CoV-2 [1]; read-out: pIC50 (converted)) was > 20 µM and the CC50 at 48 h (in vitro; CC50) was 12.7 µM. The CC50 at 48 h (in vitro; pCC50) was 12.6 µM, the IC50 (SARS-CoV-2 [2]; read-out: IC50) was > 100 µM and the IC50 (SARS-CoV-2 [2]; read-out: pIC50 (converted)) was > 100 µM.

Work on `Nc1ccc2cc3ccc(N)cc3nc2c1` [PROFLAVINE] yielded an IC50 (SARS-CoV-2 [1]) of ~15 µM, an IC50 (SARS-CoV-2 [1]; read-out: pIC50 (converted)) of ~14.8 µM and a CC50 at 48 h (in vitro; CC50) of ~6.61 µM. The CC50 at 48 h (in vitro; pCC50) was ~6.61 µM, the IC50 (SARS-CoV-2 [2]; read-out: IC50) was > 25.1 µM and the IC50 (SARS-CoV-2 [2]; read-out: pIC50 (converted)) was > 25.1 µM.

For `CN1CCCC(CC2c3ccccc3Sc3ccccc32)C1` (stereo unspecified) [METHIXENE], the IC50 (SARS-CoV-2 [1]) was 9.55 µM, the IC50 (SARS-CoV-2 [1]; read-out: pIC50 (converted)) was 9.55 µM and the CC50 at 48 h (in vitro; CC50) was 10.1 µM. The CC50 at 48 h (in vitro; pCC50) was 10 µM, the IC50 (SARS-CoV-2 [2]; read-out: IC50) was > 100 µM and the IC50 (SARS-CoV-2 [2]; read-out: pIC50 (converted)) was > 100 µM.

With `C[C@H]1c2ccccc2[C@@H](CCCN(C)C)c2cc(C(F)(F)F)ccc21` the IC50 (SARS-CoV-2 [1]) was > 100 µM, the IC50 (SARS-CoV-2 [1]; read-out: pIC50 (converted)) was > 100 µM and the CC50 at 48 h (in vitro; CC50) was 12 µM. The CC50 at 48 h (in vitro; pCC50) was 12 µM, the IC50 (SARS-CoV-2 [2]; read-out: IC50) was 10.5 µM and the IC50 (SARS-CoV-2 [2]; read-out: pIC50 (converted)) was 10.5 µM.

Compound `CN1C2CCC1CC(OC(c1ccccc1)c1ccc(Cl)cc1)C2` (stereo unspecified) has an IC50 (SARS-CoV-2 [1]) of 9.77 µM, an IC50 (SARS-CoV-2 [1]; read-out: pIC50 (converted)) of 9.77 µM and a CC50 at 48 h (in vitro; CC50) of 8.13 µM. The CC50 at 48 h (in vitro; pCC50) was 8.13 µM, the IC50 (SARS-CoV-2 [2]; read-out: IC50) was > 100 µM and the IC50 (SARS-CoV-2 [2]; read-out: pIC50 (converted)) was > 100 µM.

Compound `CNC(=O)[C@@H](c1ccccc1)N1CCc2cc(OC)c(OC)cc2[C@@H]1CCc1ccc(C(F)(F)F)cc1` [ALMOREXANT] has an IC50 (SARS-CoV-2 [1]) of 18.6 µM, an IC50 (SARS-CoV-2 [1]; read-out: pIC50 (converted)) of 18.6 µM and a CC50 at 48 h (in vitro; CC50) of 21.4 µM. The CC50 at 48 h (in vitro; pCC50) was 21.4 µM, the IC50 (SARS-CoV-2 [2]; read-out: IC50) was > 25.1 µM and the IC50 (SARS-CoV-2 [2]; read-out: pIC50 (converted)) was > 25.1 µM.

`Cc1ccc(C(=O)Oc2ccc(C(O)CNC(C)(C)C)cc2OC(=O)c2ccc(C)cc2)cc1` (stereo unspecified) [BITOLTEROL] showed an IC50 (SARS-CoV-2 [1]) of 8.13 µM, an IC50 (SARS-CoV-2 [1]; read-out: pIC50 (converted)) of 8.13 µM and a CC50 at 48 h (in vitro; CC50) of 5.69 µM. The CC50 at 48 h (in vitro; pCC50) was 5.62 µM, the IC50 (SARS-CoV-2 [2]; read-out: IC50) was > 100 µM and the IC50 (SARS-CoV-2 [2]; read-out: pIC50 (converted)) was > 100 µM.

`N=C(N)c1ccc(C=C2c3ccccc3-c3ccccc32)cc1` [PARANYLINE] gave an IC50 (SARS-CoV-2 [1]) of 3.47 µM, an IC50 (SARS-CoV-2 [1]; read-out: pIC50 (converted)) of 3.47 µM and a CC50 at 48 h (in vitro; CC50) of 2.92 µM. The CC50 at 48 h (in vitro; pCC50) was 2.88 µM, the IC50 (SARS-CoV-2 [2]; read-out: IC50) was > 100 µM and the IC50 (SARS-CoV-2 [2]; read-out: pIC50 (converted)) was > 100 µM.

For `CC(C)CN(C[C@@H](O)[C@H](Cc1ccccc1)NC(=O)O[C@H]1CO[C@H]2OCC[C@H]21)S(=O)(=O)c1ccc2nc(NC3CCN(C4CCCC4)CC3)sc2c1` [TMC 310911], the IC50 (SARS-CoV-2 [1]) was 3.94 µM, the IC50 (SARS-CoV-2 [1]; read-out: pIC50 (converted)) was 3.89 µM and the CC50 at 48 h (in vitro; CC50) was ~13 µM. It also gave a CC50 at 48 h (in vitro; pCC50) of ~12.9 µM, an IC50 (SARS-CoV-2 [2]; read-out: IC50) of ~9.55 µM and an IC50 (SARS-CoV-2 [2]; read-out: pIC50 (converted)) of ~9.55 µM.

`CCN(CC)CCOc1ccc(-c2nc3cc(Cl)ccc3s2)cc1` [HALETHAZOLE] gave an IC50 (SARS-CoV-2 [1]) of ~3.89 µM, an IC50 (SARS-CoV-2 [1]; read-out: pIC50 (converted)) of ~3.89 µM and a CC50 at 48 h (in vitro; CC50) of 3.72 µM. For the same compound, the CC50 at 48 h (in vitro; pCC50) was 3.72 µM, the IC50 (SARS-CoV-2 [2]; read-out: IC50) was > 100 µM and the IC50 (SARS-CoV-2 [2]; read-out: pIC50 (converted)) was > 100 µM.

With `CC[C@@H]1C(=O)N(C)c2cnc(Nc3ccc(C(=O)N[C@H]4CC[C@H](N5CCN(CC6CC6)CC5)CC4)cc3OC)nc2N1C(C)C` [VOLASERTIB] the IC50 (SARS-CoV-2 [1]) was > 50.1 µM, the IC50 (SARS-CoV-2 [1]; read-out: pIC50 (converted)) was > 50.1 µM and the CC50 at 48 h (in vitro; CC50) was 0.234 µM. For the same compound, the CC50 at 48 h (in vitro; pCC50) was 0.234 µM, the IC50 (SARS-CoV-2 [2]; read-out: IC50) was > 50.1 µM and the IC50 (SARS-CoV-2 [2]; read-out: pIC50 (converted)) was > 50.1 µM.

With `NCC[C@H](Oc1ccc(C(F)(F)F)cc1)c1ccccc1` [SEPROXETINE] the IC50 (SARS-CoV-2 [1]) was 7.59 µM, the IC50 (SARS-CoV-2 [1]; read-out: pIC50 (converted)) was 7.59 µM and the CC50 at 48 h (in vitro; CC50) was 10.6 µM. For the same compound, the CC50 at 48 h (in vitro; pCC50) was 10.5 µM, the IC50 (SARS-CoV-2 [2]; read-out: IC50) was > 100 µM and the IC50 (SARS-CoV-2 [2]; read-out: pIC50 (converted)) was > 100 µM.

In the case of `Oc1cc2c(cc1O)[C@H]1c3ccccc3CN[C@@H]1CC2` [DIHYDREXIDINE], the IC50 (SARS-CoV-2 [1]) is reported as 7.94 µM, the IC50 (SARS-CoV-2 [1]; read-out: pIC50 (converted)) is reported as 7.94 µM and the CC50 at 48 h (in vitro; CC50) is reported as 18.6 µM. For the same compound, the CC50 at 48 h (in vitro; pCC50) was 18.6 µM, the IC50 (SARS-CoV-2 [2]; read-out: IC50) was > 100 µM and the IC50 (SARS-CoV-2 [2]; read-out: pIC50 (converted)) was > 100 µM.

With `CCCOc1ccc(C(=O)CCN2CCCCC2)cc1` [PROPIPOCAINE] the IC50 (SARS-CoV-2 [1]) was > 100 µM, the IC50 (SARS-CoV-2 [1]; read-out: pIC50 (converted)) was > 100 µM and the CC50 at 48 h (in vitro; CC50) was 31.6 µM. For the same compound, the CC50 at 48 h (in vitro; pCC50) was 31.6 µM, the IC50 (SARS-CoV-2 [2]; read-out: IC50) was > 100 µM and the IC50 (SARS-CoV-2 [2]; read-out: pIC50 (converted)) was > 100 µM.

Work on `CCCC(C(=O)OCCN(CC)CC)(c1ccccc1)c1ccccc1` [PROADIFEN] yielded an IC50 (SARS-CoV-2 [1]) of 5.13 µM, an IC50 (SARS-CoV-2 [1]; read-out: pIC50 (converted)) of 5.13 µM and a CC50 at 48 h (in vitro; CC50) of 24 µM. The CC50 at 48 h (in vitro; pCC50) was 24 µM, the IC50 (SARS-CoV-2 [2]; read-out: IC50) was > 100 µM and the IC50 (SARS-CoV-2 [2]; read-out: pIC50 (converted)) was > 100 µM.

For `COc1ccc(C#Cc2ccccc2)c(CCC(C)N(C)CCc2ccc(OC)c(OC)c2)c1` (stereo unspecified), the IC50 (SARS-CoV-2 [1]) was 4.27 µM, the IC50 (SARS-CoV-2 [1]; read-out: pIC50 (converted)) was 4.27 µM and the CC50 at 48 h (in vitro; CC50) was 4.84 µM. The CC50 at 48 h (in vitro; pCC50) was 4.79 µM, the IC50 (SARS-CoV-2 [2]; read-out: IC50) was > 100 µM and the IC50 (SARS-CoV-2 [2]; read-out: pIC50 (converted)) was > 100 µM.

With `Cc1c(-c2ccc(O)cc2)n(Cc2ccc(OCCN3CCCCC3)cc2)c2ccc(O)cc12` [PIPENDOXIFENE] the IC50 (SARS-CoV-2 [1]) was 3.63 µM, the IC50 (SARS-CoV-2 [1]; read-out: pIC50 (converted)) was 3.63 µM and the CC50 at 48 h (in vitro; CC50) was 4.62 µM. For the same compound, the CC50 at 48 h (in vitro; pCC50) was 4.57 µM, the IC50 (SARS-CoV-2 [2]; read-out: IC50) was > 6.31 µM and the IC50 (SARS-CoV-2 [2]; read-out: pIC50 (converted)) was > 6.31 µM.

In the case of `CCC1CN2CCC1CC2C(O)c1ccnc2ccc(OCCC(C)C)cc12` (stereo unspecified), the IC50 (SARS-CoV-2 [1]) is reported as > 100 µM, the IC50 (SARS-CoV-2 [1]; read-out: pIC50 (converted)) is reported as > 100 µM and the CC50 at 48 h (in vitro; CC50) is reported as 11.4 µM. The CC50 at 48 h (in vitro; pCC50) was 11.2 µM, the IC50 (SARS-CoV-2 [2]; read-out: IC50) was > 100 µM and the IC50 (SARS-CoV-2 [2]; read-out: pIC50 (converted)) was > 100 µM.

For `COc1ccc(C[C@@H]2c3cc(OC)c(OC)cc3CC[N@+]2(C)CCC(=O)OCCCCCOC(=O)CC[N@@+]2(C)CCc3cc(OC)c(OC)cc3[C@H]2Cc2ccc(OC)c(OC)c2)cc1OC`, the CC50 at 48 h (in vitro; CC50) was > 20 µM, the CC50 at 48 h (in vitro; pCC50) was > 20 µM and the IC50 (SARS-CoV-2 [2]; read-out: IC50) was > 20 µM. The IC50 (SARS-CoV-2 [2]; read-out: pIC50 (converted)) was > 20 µM.

In the case of `CO/N=C(\C(=O)N[C@@H]1C(=O)N2C(C(=O)OC(C)OC(C)=O)=C(COC(N)=O)CS[C@H]12)c1ccco1` (stereo partly specified) [CEFUROXIME AXETIL], the CC50 at 48 h (in vitro; CC50) is reported as > 20 µM, the CC50 at 48 h (in vitro; pCC50) is reported as > 20 µM and the IC50 (SARS-CoV-2 [2]; read-out: IC50) is reported as > 20 µM. For the same compound, the IC50 (SARS-CoV-2 [2]; read-out: pIC50 (converted)) was > 20 µM.
